Reference: patent US9446039B2, “Aminoheteroaryl compounds as MTH1 inhibitors” (CEMM—FORSCHUNGSZENTRUM FÜR MOLEKULARE MEDIZIN GMBH, priority 2012, dated 2016)

Key:
Format in all cases: binding
[1] = biological target: T1, SW480 colon carcinoma cells lysate proteins (Homo sapiens, UniProt Q15293); conditions: PreyGene RCN1
T1 sequence (Q15293 30-331): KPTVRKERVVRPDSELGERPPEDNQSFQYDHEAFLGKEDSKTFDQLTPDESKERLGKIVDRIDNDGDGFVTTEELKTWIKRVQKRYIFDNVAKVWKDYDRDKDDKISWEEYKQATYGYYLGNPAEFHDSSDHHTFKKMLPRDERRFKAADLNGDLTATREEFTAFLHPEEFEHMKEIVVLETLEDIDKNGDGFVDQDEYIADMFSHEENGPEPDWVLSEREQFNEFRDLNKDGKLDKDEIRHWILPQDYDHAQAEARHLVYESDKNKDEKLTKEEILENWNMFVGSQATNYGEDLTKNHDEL

[2] = biological target: SW480 colon carcinoma cells lysate proteins (Homo sapiens, UniProt P00441); conditions: PreyGene SOD1
[3] = biological target: SW480 colon carcinoma cells lysate proteins (Homo sapiens, UniProt Q71UM5); conditions: PreyGene RPS27L; SW480 cells
[4] = biological target: SW480 colon carcinoma cells lysate proteins (Homo sapiens, UniProt P62942); conditions: PreyGene FKBP1A; SW480 cells
[5] = biological target: T2, SW480 colon carcinoma cells lysate proteins (Homo sapiens, UniProt Q15758); conditions: PreyGene SLC1A5
T2 sequence (Q15758 1-541): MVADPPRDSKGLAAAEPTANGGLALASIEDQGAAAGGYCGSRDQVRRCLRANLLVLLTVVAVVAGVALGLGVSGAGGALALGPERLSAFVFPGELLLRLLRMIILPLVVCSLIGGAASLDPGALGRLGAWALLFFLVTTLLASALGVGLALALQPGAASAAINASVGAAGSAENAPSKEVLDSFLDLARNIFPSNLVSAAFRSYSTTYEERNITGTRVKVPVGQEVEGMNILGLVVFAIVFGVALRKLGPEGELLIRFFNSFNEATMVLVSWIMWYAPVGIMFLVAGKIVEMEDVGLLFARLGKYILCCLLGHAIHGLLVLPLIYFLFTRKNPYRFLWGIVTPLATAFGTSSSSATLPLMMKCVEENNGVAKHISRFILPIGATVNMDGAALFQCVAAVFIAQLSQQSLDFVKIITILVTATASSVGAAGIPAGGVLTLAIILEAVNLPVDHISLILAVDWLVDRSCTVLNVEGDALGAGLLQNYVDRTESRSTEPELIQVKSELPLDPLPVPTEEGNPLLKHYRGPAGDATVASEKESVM

[6] = biological target: T3, SW480 colon carcinoma cells lysate proteins (Homo sapiens, UniProt Q15691); conditions: PreyGene MAPRE1
T3 sequence (Q15691 1-268): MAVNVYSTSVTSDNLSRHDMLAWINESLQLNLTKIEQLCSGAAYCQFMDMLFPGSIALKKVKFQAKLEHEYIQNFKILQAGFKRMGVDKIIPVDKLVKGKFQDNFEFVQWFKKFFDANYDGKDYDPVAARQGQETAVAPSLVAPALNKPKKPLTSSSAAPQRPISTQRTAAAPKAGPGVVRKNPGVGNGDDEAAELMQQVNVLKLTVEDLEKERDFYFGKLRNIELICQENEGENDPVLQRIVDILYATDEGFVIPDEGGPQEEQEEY

[7] = biological target: SW480 colon carcinoma cells lysate proteins (Homo sapiens, UniProt Q09666); conditions: PreyGene AHNAK; SW480 cells
[8] = biological target: SW480 colon carcinoma cells lysate proteins (Homo sapiens, UniProt P27695); conditions: PreyGene APEX1
[9] = biological target: SW480 colon carcinoma cells lysate proteins (Homo sapiens, UniProt P15531); conditions: PreyGene NME1
[10] = biological target: T4, SW480 colon carcinoma cells lysate proteins (Homo sapiens, UniProt P04075); conditions: PreyGene ALDOA
T4 sequence (P04075 1-364): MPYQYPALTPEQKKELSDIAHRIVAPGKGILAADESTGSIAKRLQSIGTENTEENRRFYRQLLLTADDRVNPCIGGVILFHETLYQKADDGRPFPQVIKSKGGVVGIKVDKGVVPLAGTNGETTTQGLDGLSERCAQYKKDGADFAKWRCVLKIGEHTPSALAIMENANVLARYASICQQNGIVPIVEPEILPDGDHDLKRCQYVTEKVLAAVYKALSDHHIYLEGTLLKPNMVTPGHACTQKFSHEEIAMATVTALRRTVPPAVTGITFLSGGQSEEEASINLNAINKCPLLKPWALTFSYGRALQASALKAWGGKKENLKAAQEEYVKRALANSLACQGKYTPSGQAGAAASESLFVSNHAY

Chain of SW480 colon carcinoma cells lysate proteins (Homo sapiens, UniProt P62942) (P62942 whole entry): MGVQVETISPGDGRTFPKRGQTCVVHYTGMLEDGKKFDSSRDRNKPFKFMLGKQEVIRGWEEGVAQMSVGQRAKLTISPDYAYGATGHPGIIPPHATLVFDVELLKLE
Chain of SW480 colon carcinoma cells lysate proteins (Homo sapiens, UniProt P15531) (P15531 whole entry): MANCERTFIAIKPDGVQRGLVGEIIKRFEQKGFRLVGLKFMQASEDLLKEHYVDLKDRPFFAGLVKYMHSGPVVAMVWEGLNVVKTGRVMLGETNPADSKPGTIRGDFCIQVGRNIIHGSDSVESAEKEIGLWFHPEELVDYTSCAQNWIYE
Chain of SW480 colon carcinoma cells lysate proteins (Homo sapiens, UniProt P27695) (P27695 whole entry): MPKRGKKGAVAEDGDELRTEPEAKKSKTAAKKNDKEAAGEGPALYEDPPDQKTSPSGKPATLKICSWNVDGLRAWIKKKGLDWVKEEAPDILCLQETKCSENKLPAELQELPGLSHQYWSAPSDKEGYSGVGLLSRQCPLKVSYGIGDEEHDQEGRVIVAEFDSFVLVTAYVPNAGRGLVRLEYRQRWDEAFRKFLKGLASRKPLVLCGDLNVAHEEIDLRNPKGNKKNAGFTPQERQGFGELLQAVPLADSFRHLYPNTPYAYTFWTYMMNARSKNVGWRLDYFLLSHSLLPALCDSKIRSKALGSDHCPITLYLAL
Chain of SW480 colon carcinoma cells lysate proteins (Homo sapiens, UniProt P00441) (P00441 whole entry): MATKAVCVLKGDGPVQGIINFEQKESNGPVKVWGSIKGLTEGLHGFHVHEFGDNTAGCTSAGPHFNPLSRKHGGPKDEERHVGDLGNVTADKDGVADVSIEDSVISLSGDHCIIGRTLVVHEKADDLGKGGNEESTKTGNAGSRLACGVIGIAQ

C[C@H](Oc1cc(-c2cnn(C3CCNCC3)c2)cnc1N)c1c(Cl)ccc(F)c1Cl [(5)-crizotinib]
AvgP [1]: 0.4191 | SC.Exp. 1-1 [1]: 4 | SC.Exp. 1-2 [1]: 4 | SC.Exp. 2-1 [1]: 0 | SC.Exp. 2-2 [1]: 0 | Sum (SC.Exp.) [1]: 8 | AvgP [2]: 0.3882 | SC.Exp. 1-1 [2]: 3 | SC.Exp. 1-2 [2]: 3 | SC.Exp. 2-1 [2]: 0 | SC.Exp. 2-2 [2]: 0 | Sum (SC.Exp.) [2]: 6 | AvgP [3]: 0 | SC.Exp. 1-1 [3]: 0 | SC.Exp. 1-2 [3]: 1 | SC.Exp. 2-1 [3]: 0 | SC.Exp. 2-2 [3]: 0 | SC.Exp. Sum [3]: 1 | AvgP [4]: 0 | SC.Exp. 1-1 [4]: 1 | SC.Exp. 1-2 [4]: 1 | SC.Exp. 2-1 [4]: 1 | SC.Exp. 2-2 [4]: 0 | SC.Exp. Sum [4]: 3 | AvgP [5]: 0.227 | SC.Exp. 1-1 [5]: 1 | SC.Exp. 1-2 [5]: 0 | SC.Exp. 2-1 [5]: 3 | SC.Exp. 2-2 [5]: 2 | Sum (SC.Exp.) [5]: 6 | AvgP [6]: 0.4084 | SC.Exp. 1-1 [6]: 2 | SC.Exp. 1-2 [6]: 3 | SC.Exp. 2-1 [6]: 0 | SC.Exp. 2-2 [6]: 0 | Sum (SC.Exp.) [6]: 5 | AvgP [7]: 0 | SC.Exp. 1-1 [7]: 5 | SC.Exp. 1-2 [7]: 6 | SC.Exp. 2-1 [7]: 6 | SC.Exp. 2-2 [7]: 6 | SC.Exp. Sum [7]: 23 | AvgP [8]: 0.1792 | SC.Exp. 1-1 [8]: 2 | SC.Exp. 1-2 [8]: 0 | SC.Exp. 2-1 [8]: 0 | SC.Exp. 2-2 [8]: 0 | Sum (SC.Exp.) [8]: 2 | AvgP [9]: 0.4442 | SC.Exp. 1-1 [9]: 6 | SC.Exp. 1-2 [9]: 4 | SC.Exp. 2-1 [9]: 0 | SC.Exp. 2-2 [9]: 0 | Sum (SC.Exp.) [9]: 10 | AvgP [10]: 0.2283 | SC.Exp. 1-1 [10]: 12 | SC.Exp. 1-2 [10]: 12 | SC.Exp. 2-1 [10]: 2 | SC.Exp. 2-2 [10]: 0 | Sum (SC.Exp.) [10]: 26
